Measured values reported in patent publication EP0308020A2, “5-(aryl and heteroaryl)-6-(aryl and heteroaryl)-1,2-dihydro-2-oxo 3-pyridinecarboxylic acids and derivatives thereof” (Merck & Co., Inc., priority 1987, dated 1989).
Converted amounts (≈) assume the structure as drawn. Read-outs that look alike come from different tables or passages of the source.

How the values were obtained:
Assay in all cases: Agar diffusion assay for antibacterial activity (MIC)
Format in all cases: cell-based
[1] = tested on: Staphylococcus aureus MB 4310; details: read-out: Minimum inhibitory conc.
Procedure: (§1) A stock solution of each test compound was prepared at a concentration of 1.28 mg/ml using sterile distilled water. After initial solubilization, two-fold dilutions were prepared and added as one-ml portions to 15 x 100 mm petri plates. A nine-ml portion of trypticase soy agar (TSA) was melted and added to each plate. The test compound and agar were mixed and allowed to cool. […] Controls were prepared using norfloxacin, coumermycin A-1, or novobiocin, and solvent.
(§2) Each plate was inoculated using a multipoint inoculator with 10⁵ colony-forming units (cfu) of the appropriate bacterium. Each bacterium was stored at -70°C before use and cultured in trypticase soy broth (TSB) at 35°C for 18 hours. The cultures, containing ca. 10⁹ cfu/ml, were diluted as necessary with TSB to provide concentrations of 10⁵ cfu/inoculation spot. The test plates were then incubated at 35°C for 20 hours. Minimum inhibitory concentrations (MIC) for each compound was the lowest concentration that allowed no growth, a barely visible haze, of five or fewer discrete colonies.
(§3) Table VI includes biological test results for representative compounds of this invention using the agar diffusion assay described above. The particular bacterial strains used are representative of organisms for which the compounds are useful as antibacterial agents.

[2] = tested on: Pseudomonas aeruginosa MB 5160 (Norfloxacin-resistant strain); details: 20 h, read-out: Minimum inhibitory conc.
Procedure: as §1, §2, §3

[3] = tested on: Escherichia coli MB 5157; details: read-out: Minimum inhibitory conc.
Procedure: as §1, §2, §3

[4] = tested on: Escherichia coli MB 5158 (Norfloxacin-resistant strain); details: 20 h, read-out: Minimum inhibitory conc.
Procedure: as §1, §2, §3

[5] = tested on: Streptococcus faecalis MB 2864; details: Enterococcus faecalis, read-out: Minimum inhibitory conc.
Procedure: as §1, §2, §3

[6] = tested on: Proteus mirabilis MB 2830; details: read-out: Minimum inhibitory conc.
Procedure: as §1, §2, §3

[7] = tested on: Klebsiella pneumoniae MB 4005; details: read-out: Minimum inhibitory conc.
Procedure: as §1, §2, §3

[8] = tested on: Escherichia coli MB 2891; details: read-out: Minimum inhibitory conc.
Procedure: as §1, §2, §3

[9] = tested on: Pseudomonas aeruginosa MB 2835; details: MB2835, Ps. aer., strain MB 2835, trypticase soy agar, 10⁵ cfu, 35°C, 20 hours, read-out: Minimum inhibitory conc.
Procedure: as §1, §2, §3

[10] = tested on: Staphylococcus aureus MB 2865; details: read-out: Minimum inhibitory conc.
Procedure: as §1, §2, §3

[11] = MB4310, St. aur., strain MB 4310, trypticase soy agar, 10⁵ cfu, 35°C, 20 hours
[12] = MB5157, E. coli, strain MB 5157, trypticase soy agar, 10⁵ cfu, 35°C, 20 hours
[13] = MB2864, Str. fae., strain MB 2864, trypticase soy agar, 10⁵ cfu, 35°C, 20 hours
[14] = MB4005, K. pneu., strain MB 4005, trypticase soy agar, 10⁵ cfu, 35°C, 20 hours
[15] = MB2891, E. coli, strain MB 2891, trypticase soy agar, 10⁵ cfu, 35°C, 20 hours
[16] = MB2865, St. aur., strain MB 2865, trypticase soy agar, 10⁵ cfu, 35°C, 20 hours
[17] = MB2830, Pr. mir., strain MB 2830, trypticase soy agar, 10⁵ cfu, 35°C, 20 hours

Structure (SMILES) | MIC [1, 11] [µg/mL] | MIC [2] [µg/mL] | MIC [3, 12] [µg/mL] | MIC [4] [µg/mL] | MIC [5, 13] [µg/mL] | MIC ([6]; MB2830, 20 h) [µg/mL] | MIC [7, 14] [µg/mL] | MIC [8, 15] [µg/mL] | MIC [9] [µg/mL] | MIC [10, 16] [µg/mL] | MIC ([5]; MB2864, 20 h) [µg/mL] | MIC [6, 17] [µg/mL] | MIC ([1]; MB4310, 20 h) [µg/mL] | MIC ([3]; MB5157, 20 h) [µg/mL] | MIC ([7]; MB4005, 20 h) [µg/mL] | MIC ([8]; MB2891, 20 h) [µg/mL] | MIC ([10]; MB2865, 20 h) [µg/mL]
CN1CCN(c2ccc(-c3[nH]c(=O)c(C(=O)O)cc3-c3ccc(F)cc3)cc2)CC1 [Example 44] | 16 (≈ 39.3 µM) | > 128 | 16 (≈ 39.3 µM) | > 128 | 128 (≈ 314 µM) | > 128 | 32 (≈ 78.5 µM) | 8 (≈ 19.6 µM) | > 128 | 32 (≈ 78.5 µM) | – | – | – | – | – | – | –
CN(C)c1ccc(-c2c(-c3ccc(F)cc3)cc(C(=O)O)c(=O)n2C)cc1 [Example 52] | 2 (≈ 5.46 µM) | > 128 | 4 (≈ 10.9 µM) | > 128 | – | > 128 | 64 (≈ 175 µM) | 2 (≈ 5.46 µM) | > 128 | 2 (≈ 5.46 µM) | > 128 | – | – | – | – | – | –
CN(C)c1ccc(-c2[nH]c(=O)c(C(=O)O)cc2-c2ccc(F)cc2)cc1 [Example 33] | 2 (≈ 5.68 µM) | > 128 | 8 (≈ 22.7 µM) | > 128 | 128 (≈ 363 µM) | – | 8 (≈ 22.7 µM) | 16 (≈ 45.4 µM) | > 128 | 2 (≈ 5.68 µM) | – | 128 (≈ 363 µM) | – | – | – | – | –
CN(C)c1ccc(-c2[nH]c(=O)c(C(=O)O)cc2-c2ccc(O)cc2)cc1 [Example 30] | 0.25 (≈ 0.714 µM) | > 128 | 0.25 (≈ 0.714 µM) | > 128 | 0.5 (≈ 1.43 µM) | – | < 0.25 | 0.25 (≈ 0.714 µM) | > 128 | 0.25 (≈ 0.714 µM) | – | 8 (≈ 22.8 µM) | – | – | – | – | –
CS(=O)(=O)c1ccc(-c2[nH]c(=O)c(C(=O)O)cc2-c2ccc(F)cc2)cc1 [Example 47, 5-(4-Fluorophenyl)-1,2-dihydro-6-[4-(methylsulfonyl)phenyl]-2-oxo-3-pyridinecarboxylic acid] | – | > 128 | – | > 128 | – | > 128 | – | – | > 128 | – | > 128 | – | > 128 | > 128 | > 128 | > 128 | > 128
COc1ccc(-c2[nH]c(=O)c(C(=O)O)cc2-c2ccc(F)cc2)cc1 [Example 32, 5-(4-Fluorophenyl)-1,2-dihydro-6-(4-methoxyphenyl)-2-oxo-3-pyridinecarboxylic acid] | 1 (≈ 2.95 µM) | > 128 | 4 (≈ 11.8 µM) | > 128 | 16 (≈ 47.2 µM) | – | 1 (≈ 2.95 µM) | 16 (≈ 47.2 µM) | > 128 | 2 (≈ 5.89 µM) | – | 32 (≈ 94.3 µM) | – | – | – | – | –
CSc1ccc(-c2[nH]c(=O)c(C(=O)O)cc2-c2ccc(F)cc2)cc1 [Example 36, 5-(4-fluorophenyl)-1,2-dihydro-6-[4-(methylthio)phenyl]-2-oxo-3-pyridine carboxylic acid] | 8 (≈ 22.5 µM) | > 128 | 16 (≈ 45 µM) | > 128 | 64 (≈ 180 µM) | > 128 | 16 (≈ 45 µM) | 64 (≈ 180 µM) | > 128 | 8 (≈ 22.5 µM) | – | – | – | – | – | – | –
CN(C)c1ccc(-c2[nH]c(=O)c(C(=O)O)cc2-c2ccc(O)cc2)c(F)c1 [Example 35] | 1 (≈ 2.71 µM) | > 128 | 1 (≈ 2.71 µM) | > 128 | 4 (≈ 10.9 µM) | – | 1 (≈ 2.71 µM) | 1 (≈ 2.71 µM) | > 128 | 0.5 (≈ 1.36 µM) | – | 32 (≈ 86.9 µM) | – | – | – | – | –
CN(C)c1ccc(-c2[nH]c(=O)c(C(=O)O)cc2-c2ccc(O)cc2)cc1F [Example 34] | 8 (≈ 21.7 µM) | > 128 | 16 (≈ 43.4 µM) | > 128 | 16 (≈ 43.4 µM) | > 128 | 16 (≈ 43.4 µM) | 4 (≈ 10.9 µM) | > 128 | 2 (≈ 5.43 µM) | – | – | – | – | – | – | –
C[S+]([O-])c1ccc(-c2[nH]c(=O)c(C(=O)O)cc2-c2ccc(F)cc2)cc1 (stereo not drawn) [Example 48] | – | > 128 | – | > 128 | – | > 128 | – | – | > 128 | – | > 128 | – | > 128 | > 128 | > 128 | > 128 | > 128
C[N+](C)([O-])c1ccc(-c2[nH]c(=O)c(C(=O)O)cc2-c2ccc(F)cc2)cc1 [Example 49] | 0.5 (≈ 1.36 µM) | > 128 | 4 (≈ 10.9 µM) | > 128 | 16 (≈ 43.4 µM) | – | 8 (≈ 21.7 µM) | 32 (≈ 86.9 µM) | > 128 | 1 (≈ 2.71 µM) | – | 64 (≈ 174 µM) | – | – | – | – | –
O=C(O)c1cc(-c2ccc(F)cc2)c(-c2ccc(N3CCCCC3)cc2)[nH]c1=O [Example 42] | 1 (≈ 2.55 µM) | > 128 | – | > 128 | 64 (≈ 163 µM) | > 128 | – | – | > 128 | 1 (≈ 2.55 µM) | – | – | – | > 128 | > 128 | > 128 | –
CN(C)c1ccc(-c2c(-c3ccc(O)cc3)cc(C(=O)O)c(=O)n2C)cc1 [Example 51, 6-[4-(Dimethylamino)phenyl]-1,2-dihydro-5-(4-hydroxyphenyl)-1-methyl-2-oxo-3-pyridinecarboxylic acid] | 0.5 (≈ 1.37 µM) | > 128 | 2 (≈ 5.49 µM) | > 128 | 128 (≈ 351 µM) | – | 16 (≈ 43.9 µM) | 0.5 (≈ 1.37 µM) | > 128 | 1 (≈ 2.74 µM) | – | 32 (≈ 87.8 µM) | – | – | – | – | –
O=C(O)c1cc(-c2ccc(F)cc2)c(-c2ccc(N3CCOCC3)cc2)[nH]c1=O [Example 43] | 4 (≈ 10.1 µM) | > 128 | 8 (≈ 20.3 µM) | > 128 | 64 (≈ 162 µM) | – | 16 (≈ 40.6 µM) | 16 (≈ 40.6 µM) | > 128 | 4 (≈ 10.1 µM) | – | 128 (≈ 325 µM) | – | – | – | – | –
C[N+](C)([O-])c1ccc(-c2[nH]c(=O)c(C(=O)O)cc2-c2ccc(O)cc2)cc1 [Example 50] | 8 (≈ 21.8 µM) | > 128 | 8 (≈ 21.8 µM) | > 128 | 16 (≈ 43.7 µM) | – | 16 (≈ 43.7 µM) | 8 (≈ 21.8 µM) | > 128 | 4 (≈ 10.9 µM) | – | 128 (≈ 349 µM) | – | – | – | – | –
